Measurements reported in patent US8653271B2 (priority 2006, dated 2014).

How the values were obtained:
[1] = system: electrically-stimulated guinea pig ileum; conditions: in vitro; cited from earlier work
[2] = mice, versus naloxone and naltrexone; cited from earlier work
[3] = previous experiments; cited from earlier work
[4] = human skin; for Mean permeability coefficient (KP × 10^3): from steady-state flux and donor solubility; for Flux from mineral oil: saturated solution in light mineral oil, 32° C., 48 h, codrug in 6-β-naltrexol equivalents
Description: Human skin harvested during abdominal reduction surgery was used for the diffusion studies. Skin sections were obtained by using a Padgett dermatome set to 250 μm; these sections were stored at −20° C. Stored skin samples were thawed to room temperature at the time of the experiment. A PermeGear flow-through (In-Line, Riegelsville, Pa., USA) diffusion cell system was used for the skin permeation studies. Skin surface temperature was maintained at 32° C. with a circulating water bath. Data was collected by using human skin from a single donor with three cells of 6-β-naltrexol and four cells CB-NTXOL-BUPOH. Because of normal human skin inter-subject permeation variability, the codrug was compared against 6-β-naltrexol permeation within each individual skin sample. These studies were repeated three times with skin from different human subject donors. The receiver solution was HEPES-buffered Hanks' balanced salt solution pH 7.4 set at a flow rate of 1.1 ml/h. […] A saturated solution of 6-β-naltrexol or CB-NTXOL-BUPOH in light mineral oil was applied to the skin in order to maintain a maximum and constant thermodynamic activity of the drug. Each cell was charged with 0.25 ml of the respective drug solution. […] All samples were immediately processed by solid phase extraction, evaporated under nitrogen, reconstituted, and analyzed for drug content by HPLC. The human tissue use was approved by the University of Kentucky Institutional Review Board.
Cumulative quantity of drug collected in the receiver compartment was plotted as a function of time. The flux value for a given experiment was obtained from the slope of the steady-state portion of the cumulative amount of drug permeated vs. time plot. Apparent permeability coefficient values were computed from Fick's First Law of diffusion:
Sink conditions were maintained in the receiver throughout the experiment, so ΔC was approximated by the drug concentration (solubility in this case) in the donor compartment.
The skin tissue was rinsed with filtered water and blotted with a paper towel. The tissue was tape-stripped twice to remove surface formulation. The area of skin with drug contact was cut out, chopped into tiny pieces, and placed in a pre-weighed vial. The vial was weighed to calculate the mass of the skin. Ten milliliters of acetonitrile was added to each vial, the vials vortexed, sonicated for 10 min, and placed in a shaker overnight. The following day, a 1 ml sample was obtained from the vials and placed in autosampler vials for analysis. […] Flux values and skin concentrations for each of the drugs were reported as mean±S.D and were statistically compared using a paired Student's t-test. Flux enhancement as well as drug disposition in the skin were considered significant at p<0.05.

[5] = humans, systemic circulation after oral dose of NTX; cited from earlier work
[6] = Predicting plasma concentrations from in vitro permeation studies; conditions: for plasma level predicted with 5.6-fold guinea pig/human skin factor: 6-β-naltrexol equivalents; for Predicted CSS of 6-β-naltrexol: Predicted from in vitro human skin diffusion data
Description: To predict the plasma concentration of 6-β-naltrexol after application of the gel formulation containing either the codrug or the control formulation, the following equation was used: […]
where CSS is the predicted steady state plasma concentration (ng/ml); JSS is the steady-state flux from in vitro permeation in Table 4 from previous studies; A is the area of the skin in contact with the formulation (14.5 cm^2); Cl is the total body clearance. […] Guinea pig skin is often more permeable than human skin, especially when the stratum corneum is the major rate-limiting step in the absorption process.

[7] = type: physicochemical; conditions: isotonic phosphate buffer pH 7.4, 32° C.
Description: Equal amounts of the each of the codrug were distributed into labeled test-tubes (20 nmol in each tube). Care was taken to ensure that the entire codrug was dissolved and the solution remained clear. Hydrolysis of the carbonate codrug (˜20 nmol) was conducted in isotonic phosphate buffer pH 7.4 at 32° C. in a water-bath with continuous stirring. […] Samples were collected at predetermined time intervals and stored in the freezer at −20° C. until analyzed. All experiments were conducted in triplicate. An aliquot part (250 μL) of hydrolysis solutions was mixed with 750 μL of acetonitrile, vortexed for 30s, and analyzed by HPLC for the presence of codrug and the two corresponding parent drugs, as well as for the intermediate hydrolysis product, 23. […] A Brownlee C18 reversed-phase Spheri-5 μm column (220×4.6 mm) connected to a C18 reversed-phase guard column (15×3.2 mm) was utilized and detection of solutes was carried out at 215 nm. The mobile phase consisted of a mixture of acetonitrile: 0.1% trifluoroacetic acid adjusted to pH 3.0 with triethylamine (50:50, v/v). The mobile phase flow rate was 1.5 mL/min and 100 μL of hydrolysis sample was injected onto the column.

[8] = cumulative 6-β-naltrexol equivalents permeated

Oc1ccc2c3c1O[C@H]1[C@H](O)CC[C@@]4(O)[C@@H](C2)N(CC2CC2)CC[C@]314 [Compound 2, 6-β-naltrexol]
potency relative to naloxone [1]: 4.5 fold
potency relative to naltrexone [1]: 2.8 fold
in vivo potency of an acute dose [2]: less than the other two antagonists
flux and other in vitro permeation parameters, guinea pig skin relative to human skin [3]: 5.6 fold
Mean permeability coefficient (KP × 10^3) [4]: 12.00 cm/h
Flux from mineral oil [4]: 0.36 nmol cm^−2 h^−1
half-life [5]: about 12 h
plasma level predicted with 5.6-fold guinea pig/human skin factor [6]: 1.1 ng/mL
Predicted CSS of 6-β-naltrexol [6]: 0.2 ± 0.1 ng/mL
Predicted CSS of 6-β-naltrexol ([6]; listed as NTXOL): 0.2 ± 0.1 ng/mL

Cc1c(-c2cccc(Cl)c2)oc(=O)n1C(C)(C)COC(=O)Oc1ccc2c3c1OC1C(O)CCC4(O)C(C2)N(CC2CC2)CCC314 (stereo not drawn) [Compound 26]
first-order rate constant k2 ([7]; generation of BUPOH via intermediate from codrug 26): 0.0139 ± 0.0006 h⁻¹
first-order rate constant k1 ([7]; hydrolysis at carbonate linker generating NTX (25) or NTXOL (26)): 0.0240 ± 0.0007 h⁻¹
share of 6-β-naltrexol flux from intact CB-NTXOL-BUPOH [4, 8]: approximately 35%
share of 6-β-naltrexol flux originating from skin hydrolysis of codrug [4, 8]: 65%
Mean permeability coefficient (KP × 10^3) [4]: 0.47 cm/h
Flux from mineral oil [4]: 1.34 nmol cm^−2 h^−1
plasma level predicted with 5.6-fold guinea pig/human skin factor [6]: 3.9 ng/mL
Predicted CSS of 6-β-naltrexol ([6]; listed as CB-NTXOL-BUPOH): 0.7 ± 0.3 ng/mL
